These results are taken from BindingDB's records for doi:10.1021/jm030905y (Vrije Universiteit, 2003).

The test concerns the target Histamine H4 receptor (Homo sapiens, UniProt Q9H3N8). Put plainly: Inhibitory activity measured by [3H]- N alpha- methyl-histamine binding to membranes of SK-N-MC cells expressing the human Histamine H4 receptor.

For orientation: Ki means the dissociation constant of the complex between target and ligand, obtained from inhibition or displacement. Lower therefore signals a stronger hold on the target.

Sequence of Histamine H4 receptor (Q9H3N8 whole entry): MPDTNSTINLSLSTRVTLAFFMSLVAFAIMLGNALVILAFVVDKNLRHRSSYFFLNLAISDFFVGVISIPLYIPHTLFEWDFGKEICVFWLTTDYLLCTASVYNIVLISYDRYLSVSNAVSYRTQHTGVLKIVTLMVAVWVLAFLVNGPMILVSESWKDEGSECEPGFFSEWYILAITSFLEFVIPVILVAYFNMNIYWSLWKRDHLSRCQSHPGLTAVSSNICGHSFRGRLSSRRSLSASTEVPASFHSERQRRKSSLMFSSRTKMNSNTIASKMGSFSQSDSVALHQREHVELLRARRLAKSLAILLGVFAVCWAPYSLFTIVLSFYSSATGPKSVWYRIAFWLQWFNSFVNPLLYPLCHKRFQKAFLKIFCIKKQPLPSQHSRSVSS

As to `C[C@@H](N)Cc1c[nH]cn1` [CHEBI:73337], the affinity, expressed as Ki, was 239 nM.

As to `NCCCc1c[nH]cn1` [Homohistamine], the Ki was 34.7 nM.
